The subject of assay [1] is IPF patients. To be noted: 26-week clinical trial in IPF patients; cited from earlier work.
Assay [2] deals with T1, human LPA1 (Homo sapiens, UniProt Q92633).
T1 construct: expressed in transfected cells; host or cells: Chinese hamster ovary (CHO) cells
The assay is described as follows: LPA1 functional antagonist assay (calcium flux). The format is cell-based. The conditions noted are these: read-out: hLPA1 IC50. The procedure: The effectiveness of compounds of the present invention as LPA1 inhibitors can be determined in an LPA1 functional antagonist assay as follows:
Chinese hamster ovary cells overexpressing human LPA1 were plated overnight (15,000 cells/well) in poly-D-lysine coated 384-well microplates (Greiner bio-one, Cat #781946) in DMEM/F12 medium (Gibco, Cat #11039). Following overnight culture, cells were loaded with calcium indicator dye (AAT Bioquest Inc, Cat #34601) for 30 minutes at 37° C. The cells were then equilibrated to room temperature for 30 minutes before the assay. Test compounds solubilized in DMSO were transferred to 384 well non-binding surface plates (Corning, Cat #3575) using the Labcyte Echo acoustic dispense and diluted with assay buffer [1×HBSS with calcium/magnesium (Gibco Cat #14025-092), 20 mM HEPES (Gibco Cat #15630-080) and 0.1% fatty acid free BSA (Sigma Cat #A9205)] to a final concentration of 0.5% DMSO. Diluted compounds were added to the cells by FDSS6000 (Hamamatsu) at final concentrations ranging from 0.08 nM to 5 μM. and were then incubated for 20 min at room temperature at which time LPA (Avanti Polar Lipids Cat #857130C) was added at final concentrations of 10 nM to stimulate the cells. […] IC50 values were determined by fitting data to a 4-parameter logistic equation (GraphPad Prism, San Diego Calif.).
For orientation: Calcium flux is commonly read through the fluorescence of an indicator in the cells.

The subject of assay [3] is nerve-injured mice. To be noted: pretreatment; cited from earlier work.
For assay [4], the system named is human foetal lung fibroblasts. To be noted: induced by BAL obtained from IPF patients; cited from earlier work.
Assay [5] concerns pancreatic cancer cell lines. The conditions noted are these: in response to LPA and peritoneal fluid (ascites) from pancreatic cancer patients; cited from earlier work.
The subject of assay [6] is mouse epithelial renal cell line, MCT. The conditions noted are these: LPA treatment of MCT cells, co-treatment with antagonist; cited from earlier work.
Assay [7] has as its system highly peritoneal metastatic pancreatic cancer cell line. The conditions noted are these: LPA-induced and ascites-induced; cited from earlier work.
Assay [8] concerns UUO mice. The conditions noted are these: UUO mice treated with the antagonist, compared with LPA1 (−/−) mice; cited from earlier work.
[9] abbreviates: CHO cells overexpressing human LPA1, inhibition of calcium flux induced by 10 nM LPA.

The structures appear in SMILES notation. Where two headings read alike, the source gives them in different places.

T1 sequence (Q92633 whole entry): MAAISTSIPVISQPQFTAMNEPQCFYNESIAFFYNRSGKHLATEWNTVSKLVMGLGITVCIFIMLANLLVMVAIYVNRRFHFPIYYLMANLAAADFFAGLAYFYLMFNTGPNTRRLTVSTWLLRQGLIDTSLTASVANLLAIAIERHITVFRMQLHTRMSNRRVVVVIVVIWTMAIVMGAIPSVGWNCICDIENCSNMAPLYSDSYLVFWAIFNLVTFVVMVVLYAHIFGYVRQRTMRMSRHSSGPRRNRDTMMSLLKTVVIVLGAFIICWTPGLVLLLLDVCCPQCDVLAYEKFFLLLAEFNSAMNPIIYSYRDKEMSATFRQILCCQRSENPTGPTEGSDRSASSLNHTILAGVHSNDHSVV

Turning to `Cc1noc(-c2ccc(-c3ccc(C4(C(=O)O)CC4)cc3)cc2)c1NC(=O)O[C@H](C)c1ccccc1` [BMS-986020], in assay [1], the “rate of FVC (forced vital capacity) decline” value was “significantly reduce”. A word on the IC50: it is the concentration needed to halve the response being measured. Regarding `Cc1nc(-c2onc(C)c2CNS(=O)(=O)Cc2ccccc2)ccc1O[C@H]1CCC[C@H](C(=O)O)C1` [Example 51, (1S,3S)-3-((2-methyl-6-(3-methyl-4-(((phenylmethyl)sulfonamido)methyl) Isoxazol-5-yl)pyridin-3-yl)oxy)cyclohexane-1-carboxylic Acid], in assay [2] (setting [9]), the IC50 was determined as 0.62 µM. Same read-out and setting: in the case of `Cc1noc(-c2ccc(O[C@H]3CCC[C@H](C(=O)O)C3)cn2)c1CNS(=O)(=O)CCc1ccccc1` [Example 53, (1S,3S)-3-((6-(3-methyl-4-(((2-phenylethyl)sulfonamido)methyl)isoxazol-5-yl) Pyridin-3-yl)oxy)cyclohexane-1-carboxylic Acid] it was 0.004 µM.

As to `Cc1noc(-c2ccc(O[C@H]3CCC[C@H](C(=O)O)C3)cn2)c1CNC(=O)CCc1ccccc1` [Example 54, (1S,3S)-3-((6-(3-methyl-4-((3-phenylpropanamido)methyl)isoxazol-5-yl)pyridin-3-yl)oxy)cyclohexane-1-carboxylic Acid], the IC50 in assay [2] was 0.255 µM.

Take `CCC[C@H](C)OC(=O)NCc1c(C)noc1-c1ccc(O[C@H]2CCC[C@H](C(=O)O)C2)cn1` [Example 55, (1S,3S)-3-((6-(3-methyl-4-((((((S)-pentan-2-yl)oxy)carbonyl)amino) Methyl) Isoxazol-5-yl)pyridin-3-yl)oxy)cyclohexane-1-carboxylic Acid]: in assay [2], the 50% inhibitory concentration (IC50) amounted to 0.023 µM. In the case of `CCC[C@@H](C)OC(=O)NCc1c(C)noc1-c1ccc(O[C@H]2CCC[C@H](C(=O)O)C2)cn1` [Example 58], in assay [2], the half-inhibitory concentration (IC50) was 0.037 µM. In the case of `Cc1noc(-c2ccc(O[C@H]3CCC[C@H](C(=O)O)C3)cn2)c1CNC(=O)OC1CC(C)(C)C1` [Example 59], the IC50 in assay [2] was found to be 0.011 µM. The same measure, in the same setting: the figure for `CCCCOC(=O)N(C)Cc1c(C)noc1-c1ccc(O[C@H]2CCC[C@H](C(=O)O)C2)cn1` [Example 60] is 0.033 µM. On the same count and under the same terms, in the case of `CC[C@H](C)COC(=O)NCc1c(C)noc1-c1ccc(O[C@H]2CCC[C@H](C(=O)O)C2)cn1` [Example 61] it was 0.008 µM; in that of `Cc1noc(-c2ccc(O[C@H]3CCC[C@H](C(=O)O)C3)cn2)c1CNC(=O)OCCC1CC1` [Example 62], 0.077 µM; in that of `Cc1noc(-c2ccc(O[C@H]3CCC[C@H](C(=O)O)C3)cn2)c1CNC(=O)OCC1CC1(C)C` (stereo partly shown) [Example 63], 0.016 µM. The same measure, in the same setting: the figure for `Cc1noc(-c2ccc(O[C@H]3CCC[C@H](C(=O)O)C3)cn2)c1CN(C)C(=O)OCc1ccccc1` [Example 64] is 0.014 µM.

Take `CCCCOC(=O)NCc1c(C)noc1-c1ccc(O[C@H]2CCC[C@H](C(=O)O)C2)cn1` [Example 65]: the concentration for half-maximal inhibition (IC50) in assay [2] turned out to be 0.014 µM. `C[C@@H](N)[C@H]1CC[C@H](C(=O)Nc2ccncc2)CC1` [Example Y-27632]: in assay [3], the allodynia and hyperalgesia entry is given as “completely abolished”. For `Cc1noc(-c2ccc(CSCCC(=O)O)cc2)c1NC(=O)OC(C)c1ccccc1Cl` (stereo not shown) [Ki16425], the “chemotaxis of human foetal lung fibroblasts” value in assay [4] is recorded as “blocked”. In assay [5], the in vitro migration result is given as “effectively blocked”. Besides, the “induction of CTGF expression” value in assay [6] is listed as “almost completely suppressed”. Moreover, in assay [7], the invasion activity result was “blocked”. For the same compound, in assay [8], the “development of renal fibrosis” value was “closely resembled the profile of LPA1 (−/−) mice”.

Source of the values: patent publication US11447475B2, “Isoxazole N-linked carbamoyl cyclohexyl acids as LPA antagonists” (BRISTOL-MYERS SQUIBB COMPANY, priority 2017, dated 2022).
